Experimental data published in the supplement of paper PMC5412046.
Where a name gives a salt, the structure may show the parent alone.

Assays:
SB.msgc-1 = experiment: AC50 for growth inhibition (viability) (log10 M); higher = less potent; settings: SB.msgc-1 (sporadic gastric cancer)
Outline: (§1)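 Values are log half-maximal activity concentrations from four-parameter fits of DMSO-normalised viability, restricted to high-quality curve classes. Patient-derived gastric cancer cells, hereditary or sporadic, were plated at 500 cells per 1536 well in 5 μL medium and given 23 nL compound in DMSO by pintool across 11 threefold dilutions, the top final concentration being 46 μM. Viability was read by ViewLux luminescence after 48 h and a 30 min CellTiter-Glo step at room temperature.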

SB.mhdgc-1 = experiment: as above; settings: SB.mhdgc-1 (hereditary c.1380delA CDH1 gastric cancer)
Outline: as §1

| SMILES | AC50 for growth inhibition (log10 M) (SB.msgc-1) | AC50 for growth inhibition (log10 M) (SB.mhdgc-1) |
| --- | --- | --- |
| C[C@@H]1CC[C@@]2(OC1)O[C@H]3C[C@H]4[C@@H]5C/C=C6/C[C@H](CC[C@]6(C)[C@H]5CC[C@]4(C)[C@H]3[C@@H]2C)O[C@@H]7O[C@H](CO)[C@@H](O[C@@H]8O[C@@H](C)[C@H](O)[C@@H](O)[C@H]8O)[C@H](O)[C@H]7O[C@@H]9O[C@@H](C)[C@H](O)[C@@H](O)[C@H]9O [Dioscin] | -5.23 | -5.38 |
| CC(C)N(CCCNC(=O)Nc1ccc(C(C)(C)C)cc1)C[C@H]1O[C@@H](n2cc(Br)c3c(N)ncnc32)[C@H](O)[C@@H]1O [SGC0946] | -4.53 | -4.68 |
| C[C@@]12O[C@@H](C[C@]1(O)CO)n1c3ccccc3c3c4c(c5c6ccccc6n2c5c31)CNC4=O [Lestaurtinib] | -5.48 | -6.33 |
| COc1ccc([S+](=O)([O-])N(C(C)=O)c2ccccc2/C=C/c2cc[n+]([O-])cc2)cc1 [IVX-214] | -6.38 | -6.53 |
| CC1(C)C(N(O)C(=O)Nc2ccc(Cl)cc2)N(c2ccc(Cl)cc2)C(=O)N1CC(=O)N/N=C/C=C/c1ccc([N+](=O)[O-])o1 (stereo unspecified) [Eeyarestatin I] | -5.03 | -5.08 |
| COc1cc(N2CCC(C(N)=O)CC2)ccc1Nc1nc(N)c(Cl)c(Nc2ccccc2[S+](=O)([O-])C(C)C)n1 | -5.58 | -6.03 |
| ClC1=CC\2=C(OC3=C(C=CC=C3)\N=C2N4CCNCC4)C=C1 [Amoxapine] | -4.78 | -4.63 |
| ClC1=CC=C2N/C3=N/C(=O)CN3CC2=C1Cl [anagrelide] | -4.78 | -4.73 |
| OC[C@H]1OC(OC2=CC3=C(C(=C2)O)C(=O)\C(=C/O3)C4=CC=C(O)C=C4)[C@H](O)[C@@H](O)[C@@H]1O (stereo partly specified) [Genistin] | -6.33 | -5.78 |
| COC[C@H](NC(=O)c1cnc(C)s1)C(=O)N[C@@H](COC)C(=O)N[C@@H](Cc1ccccc1)C(=O)[C@@]1(C)CO1 [Oprozomib] | -6.93 | -6.93 |
| CCn1cc(-c2ccnc3[nH]c(-c4cccc(CN(C)C)c4)cc23)c(-c2ccc(NC(=O)N(C)C)cc2)n1 | -4.73 | -5.38 |
| CN[C@@H](C)C(=O)N[C@H]1CCCC[C@H]2CC[C@@H](C(=O)N[C@@H](c3ccccc3)c3cn(CCCCc4ccc(CCCCn5cc([C@@H](NC(=O)[C@@H]6CC[C@@H]7CCCC[C@H](NC(=O)[C@H](C)NC)C(=O)N76)c6ccccc6)nn5)cc4)nn3)N2C1=O [SM-164] | -4.68 | -5.88 |
| CC(C)N[C@@H]1CCn2c(=O)[nH]c3cccc(c32)[C@H]1O [Zilpaterol] | -5.63 | -5.33 |
| Cc1ccc2nc(NCCN)c3ncc(C)n3c2c1 | -5.18 | -6.18 |
| Cc1c(N)nc([C@H](CC(N)=O)NC[C@@H](N)C(N)=O)nc1C(=O)N[C@H](C(=O)N[C@@H](C)[C@H](O)[C@@H](C)C(=O)N[C@@H](C(=O)NCCc1nc(-c2nc(C(=O)NCCC[S+](C)C)cs2)cs1)[C@@H](C)O)C(O[C@H]1O[C@H](CO)[C@H](O)[C@@H](O)[C@H]1O[C@H]1O[C@H](CO)[C@@H](O)[C@H](OC(N)=O)[C@@H]1O)c1c[nH]cn1 (stereo partly specified) [Bleomycin sulfate] | -5.43 | -5.88 |
| Cn1cc(-c2ccc3nnc(Sc4ccc5ncccc5c4)n3n2)cn1 [SGX-523] | -4.78 | -5.13 |
| C[C@@]12C(=O)OC(=O)[C@@]1(C)C1CCC2O1 [Cantharidin] | -5.53 | -5.28 |
| C=CC(=O)Nc1cccc(Nc2nc(NC3CCC(N(C)C)CC3)nc3c2ncn3C(C)C)c1 (stereo unspecified) | -7.43 | -7.88 |
| COC[C@H](c1ccc(C(F)(F)F)cc1)N1CCN(C2(C)CCN(C(=O)c3c(C)ncnc3C)CC2)C[C@H]1C.O=C(O)/C=C\C(=O)O [Vicriviroc] | -4.78 | -5.33 |
| ClC1=CC\2=C(NC(=O)\C(=C2N[C@@H]3CN4CCC3CC4)C5=NC6=C([NH]5)C=CC=C6)C=C1 [CHIR-124] | -6.53 | -6.08 |
| Cc1ccc([N+](=O)[O-])cc1[S+](=O)([O-])N(C)/N=C/c1cnc2ccc(Br)cn12 [PIK-75] | -7.98 | -8.03 |
| CN1CCC(CNc2ccc3ncc(-c4cccc(OC(F)(F)F)c4)n3n2)CC1 [SGI-1776] | -4.83 | -5.03 |
| CC(C)c1onc(-c2c(Cl)cccc2Cl)c1COc1ccc(/C=C/c2cccc(C(=O)O)c2)c(Cl)c1 [GW-4064X] | -4.73 | -5.33 |
| C[C@@H]1C[C@H]2[C@@H]3\C=C(C)/C4=C/C5=C(C[C@]4(C)[C@H]3[C@@H](O)C[C@]2(C)[C@@]1(O)C(=O)CO)C=N[N]5C6=CC=CC=C6 [Deacetyl cortivazol] | -5.08 | -5.63 |

| SMILES | AC50 for growth inhibition (log10 M) (SB.msgc-1) | AC50 for growth inhibition (log10 M) (SB.mhdgc-1) |
| --- | --- | --- |
| COC1=CC(c2cc3ccccc3[nH]2)=N/C1=C/c1[nH]c(C)cc1C [Obatoclax] | -5.33 | -5.43 |
| CNCCCC12CCC(c3ccccc31)c1ccccc12 [Maprotiline hydrochloride] | -4.63 | -4.78 |
| Cc1cc(-c2ncc(CC(=O)Nc3ccc(-c4cnccn4)cn3)cc2C)ccn1 [LGK974] | -4.78 | -4.88 |
| O=C1NC(=O)/C(=C/c2ccc3nccnc3c2)S1 | -4.89 | -4.84 |
| CCN(CC)C(=S)SSC(=S)N(CC)CC [Disulfiram] | -7.28 | -7.78 |
| O=C(c1ccc(OCCN2CCCCC2)cc1)c1c(-c2ccc(O)cc2)sc2cc(O)ccc12 [Raloxifene hydrochloride] | -5.18 | -6.88 |
| CCNC(=O)Nc1ccc2ncc(Nc3ccc(C)cc3)nc2n1 | -6.43 | -7.43 |
| CC/C(=C(/CC)c1ccc(O)cc1)c1ccc(O)cc1 [Diethylstilbestrol] | -4.83 | -5.53 |
| CC(=O)SCC(Cc1ccccc1)C(=O)NCC(=O)OCc1ccccc1 (stereo unspecified) [Racecadotril] | -6.23 | -6.68 |
| CN(C)CC[C@H](CSc1ccccc1)Nc1ccc([S+](=O)([O-])NC(=O)c2ccc(N3CCN(Cc4ccccc4-c4ccc(Cl)cc4)CC3)cc2)cc1[N+](=O)[O-] [ABT-737] | -5.03 | -5.43 |
| CNCC(O)C(O)C(O)C(O)CO.O=C(O)c1ccc(-c2cc3cccnc3c(-c3ccc4nonc4c3)n2)cc1 [NVP-ABE171] | -4.63 | -4.58 |
| N#Cc1c(C2CCNCC2)cc(-c2c(O)cccc2OCC2CC2)nc1N [IKK-2 Inhibitor VIII] | -4.73 | -4.88 |
| CN[S+](=O)([O-])CCc1ccc2[nH]cc(C3CCN(C)CC3)c2c1 [Naratriptan hydrochloride] | -6.83 | -7.08 |
| CC(C(=O)O)c1ccc2c(c1)CC(=O)c1ccccc1S2 (stereo unspecified) [Zaltoprofen] | -5.13 | -5.43 |
| F\C1=C\NC(=O)NC1=O [Fluorouracil] | -5.28 | -6.43 |
| CCCCCCNC(=O)N1\C=C(F)/C(=O)NC1=O [Carmofur] | -5.48 | -6.33 |
| C=C1/C(=C/C=C2\CCCC3(C)[C@@H]([C@H](C)/C=C/C=C/C(O)(CC)CC)CC[C@@H]23)C[C@@H](O)C[C@@H]1O (stereo partly specified) [Seocalcitol] | -4.78 | -4.83 |
| Cc1cnc(Nc2ccc(CN3CCOCC3)cc2)nc1Nc1cccc([S+](=O)([O-])NC(C)(C)C)c1 [TG-46] | -4.83 | -4.68 |
| COc1cc2nccc(Oc3ccc(NC(=O)Nc4cc(C)on4)c(Cl)c3)c2cc1OC [Tivozanib] | -5.58 | -5.28 |
| COC(=O)C1C2CC3c4[nH]c5cc(OC)ccc5c4CCN3CC2CC(OC(=O)c2cc(OC)c(OC)c(OC)c2)C1OC (stereo unspecified) [Reserpine] | -5.43 | -5.43 |
| Cc1n[nH]c2ccc(-c3cncc(OC[C@@H](N)Cc4c[nH]c5ccccc45)c3)cc12 | -6.08 | -6.03 |
| CCOc1ccc(Cc2cc([C@@H]3O[C@H](CO)[C@@H](O)[C@H](O)[C@H]3O)ccc2Cl)cc1 [Dapagliflozin] | -4.98 | -5.18 |
| CN(C)CC(=O)N1CCC(CC1)C2=CC=C(NC(=O)C3=NC(=C[NH]3)C#N)C(=C2)\C4=C\CCCC4 | -5.23 | -6.28 |
| COc1ccc2c(c[n+](C)c3c4cc5c(cc4ccc23)OCO5)c1OC [Chelerythrine chloride] | -5.03 | -5.08 |
